Entries after “also recorded” stand apart in the source; their conditions may differ. Where no end group is shown, it is not given here.
Experiments:
[1] = Peptide-enabled dissociation of RRK-induced AuNP aggregates; details: for particle dissociation: RRK-induced AuNP aggregates; for dissociation of aggregated AuNPs in diverse matrixes: 100% human saliva, plasma, urine, and seawater; for concentration that dissociates AuNP aggregates: Gly spacer length
Experimental: After inducing AuNP aggregates by the RRK peptides, the A1 peptides with different concentrations from 7 to 300 μM were used to dissociate AuNP aggregates. The plasmonic resonance peak of AuNP aggregates blue shifted to 520 nm after particle dissociation. (FIG. 37b). The hydrodynamic diameter of AuNP aggregates (greater than (>) 1 μm) was reduced to 27±0.07 nm, and the surface charge of AuNPs was—13.4±1.03 mV because of surface modification with neutral charged A1 peptides (150 μM) and residual citrates (FIG. 37c). Particle dissociation induced color change from blue to red and a decrease in size as confirmed by time-dependent photographs, multi-laser wavelength nanoparticle tracking analysis (M-NTA), and TEM (FIG. 37d-e and FIG. 45A-C).
To further study the role of each amino acid in the A1 peptide, we synthesized eight peptide sequences (from A2 to A8) for control experiments (FIG. 46A-H). Table 1 includes peptide sequence, net charge, critical dissociation concentrations (CDC), and design rationale. First, we replaced Cys residue with Gly (i.e., A2) to confirm the role of the anchoring group. […] Second, we hypothesized that negatively charged EE residues were required for particle dissociation because they provide electrostatic repulsions for citrate-coated AuNPs.
Briefly, 10 μM of RRK peptide was used to aggregate 100 μL of AuNPs (conc approximately 3.6 nM). The particle aggregation rapidly occurred (less than 10 s), changing color from red to blue. Then the desired dissociation peptides were used to dissociate the AuNP aggregates. It is notable that these exemplary AuNPs are stabilized by citrate. Different surface ligands (for example, BSPP) and different sizes (40 or 60 nm) require different amounts of RRK peptide for particle aggregation.
Briefly, RRK peptides (8-10 μM) was first used to trigger AuNP aggregation in distilled water. The sample was centrifuged at […] for 5 min to remove the supernatant. Then, the pellet was re-dispersed in 100% human saliva, plasma, urine, and seawater. After re-dispersion, the desired amounts of dissociation peptide were used to dissociate AuNPs aggregates in different matrixes. […] The experiment was performed with three replicates, and the microplate reader was used to measure spectral scanning from 300 to 900 nm before and after dissociation. The ratiometric signal (λ520/λ700) was referred as dissociation. The data was blanked to remove background signal.

[2] = Dissociation of Arg-Arg-AuNPs assemblies with HS-PEGs (UV-Vis percentage of dissociation, MANTA size); details: for dissociation of Arg-Arg-AuNPs assemblies: anchoring group / non-PEG ligand controls, up to >100 μM
From the text: Dissociation of the AuNPs assemblies. […] HS-PEG6-OCH3 was chosen because its grafting on AuNPs ensure a high colloidal stability of these latter. Indeed, the grafting of thiolated PEGs has been widely reported in the literature via the formation of a strong Au—S bond conferring to the particles a high colloidal stability due to a combination of hydrophilicity and steric hindrance.^30-32 The Au—S bond being stronger than the arginine-citrate, arginine-gold or even citrate-gold interactions, […] was expected to be capable of progressively replacing the arginine/citrate layers at the gold surface, disrupting the electrostatic network, and eventually dispersing the AuNPs (Scheme 1). Briefly, aqueous suspensions Arg-Arg-AuNPs assemblies were exposed to increasing concentrations of HS-PEG6-OCH3, and the dissociation of the assemblies was characterized by TEM, MANTA, FTIR and UV-Vis spectroscopies (FIG. 2).
The presence of a PEG layer around the AuNPs explains the difference in the hydrodynamic diameter versus the initial AuNPs-citrate (48±32 nm vs 40±25 nm). Remarkably, the LSPR band of the dissociated AuNPs was identical to the AuNPs-citrate: The color of the sample returned to its initial bright red color. […] For the remainder of this study, the efficiency of the dissociation will be characterized by the percentage of dissociation (%) as measured by UV-Vis spectroscopy (comparison between the LSPR band after dissociation versus that from AuNPs-citrate). See the experimental section in the supporting information for more details. […] This finding is particularly interesting because the typical grafting density of HS-PEG6-OCH3 on dispersed AuNPs is reported to be between 3.5 and 4 HS-PEG6-OCH3/nm^2.^33 This implies that no excess of HS-PEGs was needed to dissociate the entire assembly-only enough to cover all the gold surface. It is worth noting that the kinetics of the dissociation was almost instantaneous (equilibrium reached within a minute) (FIG. 14). A video of the dissociation of the AuNPs assemblies is available online.
Dissociation. Stock solutions of the different HS-PEGs with concentrations ranging from 10 μM to 1 mM were prepared. Specific volumes of each solution were added to a 96-well plate in order to reach the desired final HS-PEGs concentration and then 100 μL of Arg-Arg-AuNPs were added. For complex matrices experiments, the Arg-Arg-AuNPs were first concentrated 10 times by centrifugation and then dispersed in complex media (sea water, pooled human saliva, plasma, urine, bile or HEK cell lysates) that represented thus 90% of the total volume except for bile, which was only 20%. Quickly after the addition of AuNPs, the dissociation of the assembly was monitored and the ratio of the absorbances at 520 nm and 700 nm was recorded over time. The percentage of dissociation is described as follows:
(§1) The optical absorption measurements were collected using a hybrid multi-mode microplate reader (Synergy™ H1 model, BioTek Instruments, Inc.) in a 96-well plate. The dissociation of assembly was characterized by measuring the ratio of the absorbance at 520 nm or 530 nm and 700 nm or 820 nm for 20 nm NPs or 40 nm NPs, respectively.
The multispectral advanced nanoparticle tracking analysis (MANTA) is a technique that builds images from the particles' light scattering via three lasers of different wavelengths (for example, blue, green, and red); the wavelength of scattering depends on nanoparticle size. Thus, small particles (less than, or <, 100 nm) appear blue while larger particles appear greener or redder. MANTA uses these images to count the nanoparticles and calculate their size based on Brownian motion. […] 3000™ (Horiba Scientific, USA). The temperature was set to 25° C. during the measurement. Automated noise analysis determines the optimal wavelength for representing each nanoparticle. Here, 8-bit composite videos were generated, and 10 videos were used per analysis (300 frames for seconds).

[3] = Peptide-induced (Arg-Arg) assembly of AuNPs-citrate, TEM/MANTA/UV-Vis
From the text: Formation of AuNP assemblies. In this study, we investigated the possibility of forming convenient and reversible AuNPs assemblies using only elementary 15 nm AuNPs-citrate suspended in water and short peptides without the need for a complex surface modification. Peptides were used because they are relatively bulky and thus their steric prevented the particles from entering a permanent aggregated state. Arginine in particular can strongly interact with citrate anions via electrostatic interactions. A dipeptide containing two repetitions of arginine (Arg-Arg or RR) was thus used to interact with multiple particles at the same time and induce assembly.
Multispectral advanced nanoparticles tracking analysis (MANTA) was then used to confirm the size increase: The initial blue scattering corresponding to a hydrodynamic diameter of 40±25 nm (FIG. 1C) transformed immediately into red scattering corresponding to a hydrodynamic diameter of approximately 467±120 nm (FIG. 1D). Importantly, the count of particles decreased by more than 90%—from 2.5×10^5/mL to 2×10^4/mL, thus confirming that the vast majority of the AuNPs-citrate were aggregated. TEM images at different magnifications are seen in the supporting information (FIG. 10 and FIG. 11).
AuNPs Assembly and Dissociation Assembly. Typically, 1 mL of AuNPs-citrate at OD=1.5 was mixed with 50 μL of Arg-Arg (100 μM) to provoke the AuNPs assembly. The color of the suspensions rapidly changed from red to blue. The assembled AuNPs (Arg-Arg-AuNPs) were stable over time when stored at 4° C. and could be used for dissociation even month after their assembly.
as §1
The multispectral advanced nanoparticle tracking analysis (MANTA) is a technique that builds images from the particles' light scattering via three lasers of different wavelengths (for example, blue, green, and red); the wavelength of scattering depends on nanoparticle size. Thus, small particles (less than, or <, 100 nm) appear blue while larger particles appear greener or redder. MANTA uses these images to count the nanoparticles and calculate their size based on Brownian motion. MANTA was performed with the VIEWSIZER 3000™ (Horiba Scientific, USA). The temperature was set to 25° C. during the measurement. Automated noise analysis determines the optimal wavelength for representing each nanoparticle. Here, 8-bit composite videos were generated, and 10 videos were used per analysis (300 frames for seconds). A quartz cuvette with minimum volume of 1 mL was used for the measurement and the AuNPs concentrations was set up at 0.04 nM.

[4] = biological target: SARS-CoV-2 main protease (Mpro) (Severe acute respiratory syndrome coronavirus 2, UniProt P0DTD1)
[5] = critical dissociation concentration, X (no dissociation)

Ace-EEPPC-Am [Peptide A7]
CDC [1, 5]: >300 µM | decreased to % of the dissociation capacity ([1]; relative to A1 peptide): 30%

O=C(O)CCOCCOCCOCCOCCOCCOCCOCCOCCOCCOCCOCCOCCS [HS-PEG12-COOH, HS—(CH2CH2O)12—CH2CH2COOH]
assemblies dissociated ([2]; from concentrations of 10 μM): 100%

NH2-EEKKPPC-Am (H-EEKKPPC-NH2) [Peptide A3]
particle dissociation [1]: no particle dissociations

Ace-KKEEPPC-Am (Ac-KKEEPPC-NH2) [Peptide A6]
particle dissociation [1]: particle dissociation was quenched

Ace-EEKKGGC-Am (Ac-EEKKGGC-NH2) [Peptide A11]
dissociation of aggregated AuNPs in diverse matrixes [1]: successfully dissociated the aggregated AuNPs in diverse matrixes | concentration that dissociates AuNP aggregates [1]: 16 µM | particle dissociation [1]: highest dissociation capacity compared to other spacers | CDC ([1]; spacer comparison PP, AA, GG): 16 µM

O=C(O)c1ccc(S)cc1 [MBA, 4-mercaptobenzoic acid, reference compound]
dissociation of Arg-Arg-AuNPs assemblies [2]: none could dissociate the aggregates

Ace-EEKKAAC-Am [Peptide A10]
CDC ([1]; spacer comparison PP, AA, GG): 150 µM

Ace-EEKKGGGGC-Am (Ac-EEKKGGGGC-NH2) [Peptide A12]
dissociation of aggregated AuNPs in diverse matrixes [1]: successfully dissociated the aggregated AuNPs in diverse matrixes | concentration that dissociates AuNP aggregates [1]: 16 µM

Arg-Arg
decrease of the count of particles ([3]; MANTA, from 2.5×10^5/mL to 2×10^4/mL after Arg-Arg): more than 90% | Arg-Arg-induced aggregation of AuNPs-citrate in complex media ([3]; biological fluids, high concentrations of Arg-Arg (>200 μM)): could not induce the AuNPs-citrate aggregation in biological fluids | hydrodynamic diameter (MANTA) after addition of di-arginine peptide ([3]; excess (10^4 equiv.), 10 μM Arg-Arg, 10 minutes, initial AuNPs-citrate 40±25 nm): approximately 467±120 nm

Ace-CGGKKEEAVLQSGF-Am [Peptide A19]
peptide concentration causing non-desired particle dissociation [4]: over 50 μM

O=C(O)CCS [MPA, 3-mercaptopropionic acid, reference compound]
dissociation of Arg-Arg-AuNPs assemblies [2]: none could dissociate the aggregates

Ace-CGGKKEEAVLQ-Am [Peptide A15]
particle dissociation [1]: higher dissociation capacity than the A14 peptide; also recorded: dissociated AuNP aggregates

Ace-KEEKKPPC-Am (Ac-KEEKKPPC-NH2) [Peptide A4]
particle dissociation [1]: no particle dissociations

Arg-Gly-Gly-Gly-Arg (RGGGR-NH2) [reference compound]
affinity for the AuNPs-citrate compared to Arg-Arg (RR) ([3]; FIG. 1F): higher affinity for the particles than RR

Ace-EEPPKKC-Am (Ac-EEPPKKC-NH2) [Peptide A5]
dissociation capacity lower than A1 peptide [1]: 50% | CDC [1, 5]: >300 µM

Ace-EEKKPPG-Am (Ac-EEKKPPG-NH2) [Peptide A2]
particle dissociation [1]: failed to dissociate AuNP aggregates

SGFR
impact of released fragment on the dissociation process [4]: negligible impact on the dissociation process

Ace-EEKKGGGGGGC-Am (Ac-EEKKGGGGGGC-NH2) [Peptide A13]
dissociation capacity lower than the A12 peptides ([1]; same peptide concentration (30 μM)): 25%

Ace-EEKKGGCAVLQ-Am (Ac-EEKKGGCAVLQ-NH2) [Peptide A17]
particle dissociation [1]: failed to dissociate AuNP aggregates; also recorded: decreased the dissociation capacity

— patent US20260071252A1, “REVERSIBLE NANOPARTICLE AGGREGATES AND METHODS FOR DETECTING PROTEASES” (The Regents of the University of California, priority 2022, published 2026)
